# Test results: article PMC3920478, “Small molecule-mediated refolding and activation of myosin motor function” (eLife, 2014)
# “Also recorded” adds a separate entry of the source.
# Assays:
# [1] = tested on: Dd myosin-1B, -1C, -1D, -1E motor domains; assay: Steady-state basal and actin-activated Mg2+-ATPase (NADH-coupled assay); format: biochemical, Dictyostelium discoideum
# Protocol: Rabbit fast skeletal muscle heavy meromyosin (HMM) was prepared as described by [Margossian and Lowey (1982)]. Porcine β-cardiac myosin was prepared essentially as described by [Pant et al. (2009)] and [Jacques et al. (2008)] and further purified by gel filtration. S1 and HMM fragments were produced by proteolytic digestion of the full-length proteins with 0.05 mg/ml papain (10 min, 25°C) for S1 and with 0.1 mg/ml TLCK-treated α-chymotrypsin (15 min, 25°C) for HMM. Reactions were stopped with specific protease inhibitors for papain (10 µM E−64) and chymotrypsin (10 µM chymostatin, 1 mM benzamidine). Proteolytic fragments were further purified by actin-coprecipitation. Pellets were washed twice and myosin was extracted from the pellets using ATP containing buffer. Gel filtration was used to further increase purity of myosin S1 and HMM fragments. […]
# Basal and actin-activated Mg^2+-ATPase activities were measured using the NADH-coupled assay described previously ([Furch et al., 1998]) adapted for higher throughput screens for a temperature controlled plate reader (Multiscan FC, Thermo Scientific, Waltham, MA) at 25°C. […]
# β-cardiac myosin = β-cardiac myosin (Sus scrofa, UniProt P79293); assay: In vitro motility assay (actin filament sliding); format: biochemical, Porcine; design: β-Cardiac myosin-2 (S1, full-length); from tissue; host or cells: porcine cardiac muscle
# Excerpt: In addition, the fraction of moving filaments increased from <75% to >95%. […] In initial experiments, we determined the minimal concentration of α-actinin molecules that generate sufficient load to stall the movement of actin filaments for a given surface density of myosin heads. […] Next, we generated in vitro motility flow cells with actin filaments held at stall force. […] The time-dependence of the recovery of motile activity is best fit by a hyperbola. A plateau value of 0.4 μm s^−1 is reached after more than 2 hr (Figure 1G).
# Actin-sliding motility was performed at 20°C using an Olympus IX81 (Olympus, Hamburg, Germany) inverted fluorescence microscope as described previously ([Fujita-Becker et al., 2005]). Average sliding velocities were determined from the Gaussian distribution of automatically tracked actin filaments using DiaTrack 3.01 (Semasopht, Chavannes, Switzerland) and Origin 7.0 (OriginLab Corporation, Northampton, MA). Errors indicate standard deviations.
# [2] = molecular target: Skeletal muscle myosin-2 (HMM); assay: Steady-state basal and actin-activated Mg2+-ATPase (NADH-coupled assay); format: biochemical, Rabbit
# Protocol: Rabbit fast skeletal muscle heavy meromyosin (HMM) was prepared as described by [Margossian and Lowey (1982)]. Porcine β-cardiac myosin was prepared essentially as described by [Pant et al. (2009)] and [Jacques et al. (2008)] and further purified by gel filtration. S1 and HMM fragments were produced by proteolytic digestion of the full-length proteins with 0.05 mg/ml papain (10 min, 25°C) for S1 and with 0.1 mg/ml TLCK-treated α-chymotrypsin (15 min, 25°C) for HMM. Reactions were stopped with specific protease inhibitors for papain (10 µM E−64) and chymotrypsin (10 µM chymostatin, 1 mM benzamidine). Proteolytic fragments were further purified by actin-coprecipitation. Pellets were washed twice and myosin was extracted from the pellets using ATP containing buffer. Gel filtration was used to further increase purity of myosin S1 and HMM fragments. His-tagged motor domain constructs of Dd myosin-2, Dd myosin-1B, Dd myosin-1C, Dd myosin-1D, Dd myosin-1E, Dd myosin-5b fused to two Dd α-actinin repeats substituting the light-chain binding domains ([Anson et al., 1996]) were expressed in Dd AX3-ORF + cells and purified by Ni^2+-chelate affinity chromatography ([Manstein and Hunt, 1995]).
# Basal and actin-activated Mg^2+-ATPase activities were measured using the NADH-coupled assay described previously ([Furch et al., 1998]) adapted for higher throughput screens for a temperature controlled plate reader (Multiscan FC, Thermo Scientific, Waltham, MA) at 25°C. […] Control measurements were carried out in the absence of drug, as well as in the presence of according concentrations of the non-binding (−)-enantiomer EMD 57439 to account for possible absorption effects. […] Data points are mean values from 3 to 5 independent experiments. Error bars indicate standard deviations.
# [3] = tested on: neonatal rat cardiomyocytes (NRCM); assay: Neonatal rat cardiomyocytes: cell size, MHC and ANP expression at 37°C or 42°C; format: cell-based; details: 10 µM, 24 hr
# Protocol: Cell culture media, fetal bovine serum (FBS), and horse serum (HS) were purchased from Biochrome (Berlin, Germany); all other chemicals were from Sigma-Aldrich (St Louis, MO). Isolation of neonatal rat cardiomyocytes (NRCM) was performed by enzymatic digestion of neonatal rat hearts as described previously ([Hilfiker-Kleiner et al., 2004]). NRCM were cultured in plating medium containing 5% FBS and 10% HS for 24 hr followed by serum-starvation for 48 hr. NRCM were cultured in serum-free medium containing either EMD (10 µM) or the corresponding volume of the solvent DMSO (1 µl/ ml) for additional 24 hr at 37°C or 42°C with 5% CO2.
# For indirect immunofluorescence NRCM were fixed with 95% ethanol. Monoclonal antibodies against sarcomeric α-actinin (1:50; Sigma-Aldrich) or sarcomeric Myosin heavy chain (1:50; Santa Cruz Biotechnology, Dallas, TX) were used. Fluor-488 goat anti-mouse IgG (1:250; Jackson ImmunoResearch, West Grove, PA) or Alexa Fluor 639 goat anti-rabbit (1:250; Jackson ImmunoResearch) was employed as secondary antibody. Immunofluorescence was detected by the use of the AxioVison Rel 4.1 package (Carl Zeiss GmbH).
# Realtime measurement of PCR amplification was performed using the Stratagene MX4000 multiplex QPCR System with the SYBR green dye method (Brilliant SYBR Green Mastermix-Kit, Stratagene, La Jolla, CA) as described ([Hilfiker-Kleiner et al., 2010]; [Hoch et al., 2011]). Total RNA was extracted from NRCM using Trizol reagent according to the manufactures protocol (Invitrogen, Carlsbad, CA). Reverse transcriptase (RT)-PCR was performed of ANP and b2m using 2 μg of total RNA. The primer sequences and PCR conditions are described in Table 3. PCR products were size-fractionated by 2% agarose gel electrophoresis.
# Protein expression in NRCM was determined by standard immunoblotting techniques under denaturing conditions, as described previously ([Hilfiker-Kleiner et al., 2004]). A monoclonal primary antibody against sarcomeric MHC (1:1.000; Abcam, Cambridge, UK) was used and signal detection was achieved by the usage of a horseradish peroxydase-conjugated secondary antibody (GE) and ECL-detection. PonceauS staining was carried out and used as a loading control.
# Chain of β-cardiac myosin (P79293 whole entry): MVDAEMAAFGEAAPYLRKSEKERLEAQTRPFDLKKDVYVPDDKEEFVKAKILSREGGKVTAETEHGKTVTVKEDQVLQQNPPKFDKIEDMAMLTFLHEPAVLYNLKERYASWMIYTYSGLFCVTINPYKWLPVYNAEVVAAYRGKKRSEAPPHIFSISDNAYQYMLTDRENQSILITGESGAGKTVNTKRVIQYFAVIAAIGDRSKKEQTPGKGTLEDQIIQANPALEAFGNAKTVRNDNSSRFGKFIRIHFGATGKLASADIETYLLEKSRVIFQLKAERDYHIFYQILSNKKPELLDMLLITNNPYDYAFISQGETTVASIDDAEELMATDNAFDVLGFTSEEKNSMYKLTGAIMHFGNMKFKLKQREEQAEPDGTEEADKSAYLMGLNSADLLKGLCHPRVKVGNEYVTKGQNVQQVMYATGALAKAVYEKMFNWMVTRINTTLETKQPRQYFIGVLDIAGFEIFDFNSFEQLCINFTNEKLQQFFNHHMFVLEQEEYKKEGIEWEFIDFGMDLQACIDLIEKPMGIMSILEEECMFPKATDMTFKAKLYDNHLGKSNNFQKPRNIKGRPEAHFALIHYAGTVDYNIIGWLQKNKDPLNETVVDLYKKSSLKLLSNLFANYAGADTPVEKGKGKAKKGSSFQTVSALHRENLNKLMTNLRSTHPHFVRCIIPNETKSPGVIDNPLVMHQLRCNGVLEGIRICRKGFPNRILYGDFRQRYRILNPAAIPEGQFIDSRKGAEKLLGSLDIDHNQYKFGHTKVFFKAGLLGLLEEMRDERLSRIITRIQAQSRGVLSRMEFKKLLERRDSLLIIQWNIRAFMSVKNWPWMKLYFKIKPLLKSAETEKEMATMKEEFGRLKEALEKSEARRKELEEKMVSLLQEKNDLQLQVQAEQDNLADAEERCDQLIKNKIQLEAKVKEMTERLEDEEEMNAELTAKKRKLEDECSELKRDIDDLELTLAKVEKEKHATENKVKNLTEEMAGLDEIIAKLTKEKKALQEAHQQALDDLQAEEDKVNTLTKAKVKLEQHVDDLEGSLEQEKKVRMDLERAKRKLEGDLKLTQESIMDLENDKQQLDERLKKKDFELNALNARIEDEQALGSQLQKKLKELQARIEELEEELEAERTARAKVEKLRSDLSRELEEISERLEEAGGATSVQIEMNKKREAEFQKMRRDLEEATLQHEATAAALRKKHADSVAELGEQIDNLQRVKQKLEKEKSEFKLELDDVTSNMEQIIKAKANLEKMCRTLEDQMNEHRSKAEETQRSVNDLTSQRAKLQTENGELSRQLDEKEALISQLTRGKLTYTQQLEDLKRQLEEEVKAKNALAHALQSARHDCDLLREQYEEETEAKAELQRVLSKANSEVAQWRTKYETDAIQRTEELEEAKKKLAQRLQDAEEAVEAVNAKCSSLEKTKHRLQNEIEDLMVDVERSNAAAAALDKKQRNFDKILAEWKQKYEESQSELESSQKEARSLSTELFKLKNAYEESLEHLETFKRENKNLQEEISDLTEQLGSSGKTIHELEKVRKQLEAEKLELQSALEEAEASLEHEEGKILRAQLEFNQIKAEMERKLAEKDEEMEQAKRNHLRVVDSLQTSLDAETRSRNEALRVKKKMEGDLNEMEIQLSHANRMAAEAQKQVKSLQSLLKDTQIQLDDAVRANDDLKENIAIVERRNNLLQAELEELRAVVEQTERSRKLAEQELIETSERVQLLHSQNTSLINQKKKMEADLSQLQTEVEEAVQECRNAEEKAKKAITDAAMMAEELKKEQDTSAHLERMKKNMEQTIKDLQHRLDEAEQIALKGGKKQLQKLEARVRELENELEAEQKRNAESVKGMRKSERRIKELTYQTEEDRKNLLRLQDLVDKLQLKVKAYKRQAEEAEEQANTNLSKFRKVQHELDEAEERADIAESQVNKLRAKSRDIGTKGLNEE
smiles,measurement,setting,value
COc1ccc(C(=O)N2CCCc3cc(C4=NNC(=O)SC4C)ccc32)cc1OC (centres unmarked) [EMD 57033],Normalized maximal ATPase activation (basal),[1],no effect
same,Normalized maximal ATPase activation (with 30 µM actin),[1]; 30 µM actin,no effect
same,Increase of actin filament sliding velocity,β-cardiac myosin,1.8 fold
same,Fraction of moving filaments,β-cardiac myosin; in presence of EMD 57033,> 95%
same,AC50,[2],15.1 µM
same,Activation potency relative to β-cardiac myosin (weaker),[2],twofold
same,Normalized maximal ATPase activation (basal),[2],1.6
same,Normalized maximal ATPase activation (with 30 µM actin),[2]; 30 µM actin,2.2
same,ANP mRNA expression,[3]; 37°C,not significantly changed; also recorded: does not affect expression of ANP mRNA
same,Total cardiac MHC protein content,[3]; 37°C or 42°C,without significant changes in total cardiac MHC protein content; also recorded: does not significantly alter MHC protein levels
same,β-cardiac MHC mRNA expression,"[3]; 37°C, vs DMSO",reduction in β-cardiac MHC transcripts; also recorded: significantly reduces
same,ANP mRNA expression induced by hyperthermic stress,[3]; 42°C,completely suppressed; also recorded: fully suppressed
same,β-cardiac MHC mRNA downregulation,[3]; 42°C,significantly more pronounced
same,α-cardiac MHC mRNA expression,[3]; vs DMSO,without significant changes; also recorded: does not alter α-cardiac MHC mRNA expression
